Measurements as given in paper PMC9078697, “Discovery and preliminary SAR of 14-aryloxy-andrographolide derivatives as antibacterial agents with immunosuppressant activity” (RSC Advances, 2018).
Read-outs that look alike come from different tables or passages of the source.

How the values were obtained:
E. coli = test: Bacteriostatic screening (growth, OD630) against E. coli; assay type: cell-based; details: for inhibition rate (%) EC / inhibition at 250 µM: at 250 μM of the tested compound; for IC50 / inhibition at 250 µM: Escherichia coli; for IC50: 24 h, IC50 generated when inhibition at 250 μM was higher than 80%; for inhibition at 250 µM: read-out: inhibition rate (%) EC
Experimental: (§1) The strategy in this study was to submit these synthesized compounds to a preliminary screening test against E. coli, S. aureus and E. faecalis (ciprofloxacin was used as a reference compound; see Table 1). […] The tested compound or ciprofloxacin (positive drug) was dissolved in DMSO and diluted with LB liquid medium into a stock solution containing 20% DMSO before use; the stock solution of the carrier was 20% DMSO in LB liquid medium. All the experiments, including blank controls, were performed in triplicate. Bacteriostatic screening was performed by applying a modified protocol of the National Committee on Clinical Laboratory Standards (NCCLS).[29] Briefly, E. coli, S. aureus and E. faecalis cells (American Type Culture Collection, ATCC) were grown in LB plate medium for one passage, then seeded in LB liquid medium and cultured at 37 °C for 12 h. After being diluted 1000 times, 190 μL diluted cells were aliquoted to 96-well plates; then, 10 μL stock solution of carrier or a gradient amount of the tested compound or the positive compound, ciprofloxacin, were added; the final concentration of DMSO was 1% in all wells. The blank controls contained 1% DMSO and LB medium but no bacterial cells.

E. faecalis = test: Bacteriostatic screening (growth, OD630) against E. faecalis; assay type: cell-based; details: for IC50: 24 h, IC50 generated when inhibition at 250 μM was higher than 80%
Experimental: as §1

[1] = tested on: TNF-α/NF-κB signaling pathway; test: TNF-α/NF-κB luciferase reporter assay in AD-293 cells; assay type: cell-based; details: AD-293 reporter cells, 50 ng mL−1 TNF-α, treated for 4 h
Source text: (§2) We utilized luciferase reporters bearing the promoter regions of TNF-α/NF-κB, TLR4/NF-κB, and IL-6/STAT3 ([ref. 25]) to examine the activities of the antibacterial active andrographolide analogs in the regulation of signaling pathways that govern inflammatory response (Table 2). […] Like their similarity in inhibitory activity against E. faecalis, E. coli and S. aureus (Table 1), 3-keto-19-alcohol compound 9b1 suppresses three signaling pathways in the same fashion as 6b17 (Table 2). […] Cells from the AD-293 cell line, a derivative of the HEK293 cell line with improved adherence and plaque formation properties, were purchased from Stratagene (La Jolla, CA, USA). The protocols were adopted and modified from our previous report.[25] All compounds were dissolved in DMSO at 10 mM as a stock solution. The final concentration of DMSO was 0.1% in the culture medium. AD-293 cells bearing luciferase reporters with promoter regions of IL-6/STAT3 and TNF-α/NF-κB in pGL4.20 vector (Promega) were maintained in DMEM high glucose medium supplemented with 10% FBS and 1% penicillin streptomycin in the presence of 1 μg mL^−1 puromycin. AD-293 cells overexpressing TLR4 and stably transfected with NF-κB reporter were maintained in DMEM high glucose medium in the presence of 1 μg mL^−1 puromycin and 10 μg mL^−1 blasticidin. All cells were maintained in a humidified incubator at 37 °C in 95% air and 5% CO2. Reporter cells were treated with 50 ng mL^−1 TNF-α to stimulate the NF-κB signaling pathway, 1 μg mL^−1 LPS to stimulate the TLR4/NF-κB signaling pathway, and 2.5 μg mL^−1 IL-6 to stimulate the IL-6/STAT3 signaling pathway. The medium was removed at the end of the treatment, cell extracts were prepared, and the luciferase activity was measured using a Luciferase assay kit (Promega) according to the manufacturer's instructions. EC50 was defined as the concentration of drug that inhibited stimulator-triggered luciferase reporter activation by 50% after continuous drug exposure for 4 (TNF-α/NF-κB) or 16 (IL-6/STAT3 and TLR4/NF-κB) hours. Each concentration was repeated 3 times independently.

[2] = tested on: TLR4/NF-κB signaling pathway; test: TLR4/NF-κB luciferase reporter assay in AD-293 cells; assay type: cell-based; details: AD-293 reporter cells, 1 μg mL−1 LPS, treated for 16 h
Source text: as §2

AD-293 cells [3] = test: Cytotoxicity (MTT) in AD-293 cells; assay type: cell-based; details: treated for 24 h
S. aureus = test: Bacteriostatic screening (growth, OD630) against S. aureus; assay type: cell-based; details: for inhibition rate (%) SA / inhibition at 250 µM: at 250 μM of the tested compound; for IC50 / inhibition at 250 µM: Staphylococcus aureus; for IC50: 24 h, IC50 generated when inhibition at 250 μM was higher than 80%; for inhibition at 250 µM: read-out: inhibition rate (%) SA
Experimental: as §1

[4] = tested on: IL-6/STAT3 signaling pathway; test: IL-6/STAT3 luciferase reporter assay in AD-293 cells; assay type: cell-based; details: AD-293 reporter cells, 2.5 μg mL−1 IL-6, treated for 16 h
Source text: as §2

AD-293 cells [5] = tested on: AD-293 cells; set-up: method as in PMID 28680097; details: treated for 24 h; cited from earlier work
[6] = tested on: IL-6/STAT3 signaling pathway; set-up: method as in PMID 28680097; details: AD-293 reporter cells; treated for 16 h; cited from earlier work
[7] = tested on: TNF-α/NF-κB signaling pathway; set-up: method as in PMID 28680097; details: AD-293 reporter cells; treated for 4 h; cited from earlier work
[8] = tested on: TLR4/NF-κB signaling pathway; set-up: method as in PMID 28680097; details: AD-293 reporter cells; treated for 16 h; cited from earlier work
[9] = Cytotoxicity (MTT) in AD-293 cells; assay type: cell-based; details: human, AD-293 cells (HEK293 derivative), treated for 24 h

C=C1CCC2C3(C)COC(C)(C)OC3CCC2(C)C1CC=C1C(=O)OCC1Oc1cccc2cccnc12 (stereo not drawn) [5b17, (14β)-(Quinolyl-8′-oxy)-3,19-acetonylidene andrographolide]
inhibition rate (%) EC (E. coli): (47) % | IC50 (E. faecalis): 19.3 ± 2.3 µM | EC50 [1]: 2.45 ± 0.49 µM | EC50 [2]: 2.85 ± 0.07 µM | CC50 (AD-293 cells [3]): > 10 µM | inhibition rate (%) SA (S. aureus): (27) % | EC50 [4]: 6.35 ± 0.77 µM

C=C1CCC2C(C)(CO)C(O)CCC2(C)C1CC=C1C(=O)OCC1Oc1cccc2cccnc12 (stereo not drawn) [6a17, (14α)-(Quinolyl-8′-oxy)andrographolide]
inhibition rate (%) EC (E. coli): (70) % | IC50 (E. faecalis): 16.3 ± 2.1 µM | EC50 [1]: > 10 µM | EC50 [2]: > 10 µM | CC50 (AD-293 cells [3]): > 10 µM | inhibition rate (%) SA (S. aureus): (66) % | EC50 [4]: 5.62 ± 0.13 µM

C=C1CCC2C(C)(CO)C(O)CCC2(C)C1CC=C1C(=O)OCC1Oc1ccc([N+](=O)[O-])cc1OC (stereo not drawn) [6b3, (14β)-(2′-Methoxy-4′-nitro)phenoxy-andrographolide]
CC50 (AD-293 cells [5]): > 10 µM | IC50 (E. faecalis): 140 ± 11.9 µM | inhibition rate (%) SA (S. aureus; 250 µM): (44) % | EC50 [6]: > 10 µM | EC50 [7]: 8.97 ± 1.03 µM | EC50 [8]: 3.49 ± 0.34 µM

C=C1CC[C@@H]2[C@](C)(CO)[C@H](O)CC[C@@]2(C)[C@@H]1C/C=C1/C(=O)OC[C@@H]1Oc1cccc2cccnc12 [6b17, (14β)-(Quinolyl-8′-oxy)andrographolide]
IC50 (E. coli): 21.6 ± 1.7 µM | IC50 (E. faecalis; Enterococcus faecalis): 6.3 ± 1.5 µM | times more active than 5b17 against E. faecalis (E. faecalis; versus 5b17): 3 times | EC50 ([1]; Homo sapiens, AD293): 2 ± 0.28 µM | EC50 ([2]; Homo sapiens, AD293): 2.65 ± 0.07 µM | CC50 at 24 h [9]: > 10 µM | IC50 (S. aureus): 37.5 ± 2.2 µM | EC50 ([4]; Homo sapiens, AD293): 2.41 ± 0.31 µM | melting point: 134 to 136 °C

C=C1CC[C@@H]2[C@](C)(COC(C)=O)[C@H](O)CC[C@@]2(C)[C@@H]1C/C=C1/C(=O)OC[C@@H]1Oc1cccc2cccnc12 [7b1, (14β)-(quinolyl-8′-oxy)-19-acetoxy andrographolide]
inhibition at 250 µM (E. coli): 60% | IC50 (E. faecalis; Enterococcus faecalis): 8.6 ± 0.7 µM | EC50 ([1]; Homo sapiens, AD293): 4.91 ± 0.02 µM | EC50 ([2]; Homo sapiens, AD293): > 10 µM | CC50 at 24 h [9]: > 10 µM | inhibition at 250 µM (S. aureus): 58% | EC50 ([4]; Homo sapiens, AD293): > 10 µM

C=C1CC[C@@H]2[C@](C)(CO[Si](C)(C)C(C)(C)C)[C@H](O)CC[C@@]2(C)[C@@H]1C/C=C1/C(=O)OC[C@@H]1Oc1cccc2cccnc12 [7b2, (14β)-(quinolyl-8′-oxy)-19-(t-butyldimethylsilyloxy)andrographolide]
inhibition at 250 µM (E. coli): 24% | IC50 (E. faecalis; Enterococcus faecalis): 26.2 ± 2.8 µM | inhibition at 250 µM (S. aureus): 23% | melting point: 149 to 151 °C

C=C1CC[C@H]2[C@@](C)(CCC(=O)[C@@]2(C)COC(C)=O)[C@@H]1C/C=C1/C(=O)OC[C@@H]1Oc1cccc2cccnc12 [8b1, (14β)-(quinolyl-8′-oxy)-3-keto-19-acetoxy andrographolide]
inhibition at 250 µM (E. coli): 34% | IC50 (E. faecalis; Enterococcus faecalis): 7.6 ± 0.8 µM | EC50 ([1]; Homo sapiens, AD293): > 10 µM | EC50 ([2]; Homo sapiens, AD293): 4.84 ± 0.31 µM | CC50 at 24 h [9]: > 10 µM | inhibition at 250 µM (S. aureus): 42% | EC50 ([4]; Homo sapiens, AD293): > 10 µM

C=C1CC[C@H]2[C@@](C)(CCC(=O)[C@@]2(C)CO)[C@@H]1C/C=C1/C(=O)OC[C@@H]1Oc1cccc2cccnc12 [9b, (14β)-(quinolyl-8′-oxy)-3-keto andrographolide]
IC50 (E. coli): 27.9 ± 1.5 µM | IC50 (E. faecalis; Enterococcus faecalis): 9.1 ± 2.1 µM | EC50 ([1]; Homo sapiens, AD293): 2.03 ± 0.01 µM | EC50 ([2]; Homo sapiens, AD293): 5.96 ± 0.03 µM | CC50 at 24 h [9]: > 10 µM | IC50 (S. aureus): 27.6 ± 1.8 µM | EC50 ([4]; Homo sapiens, AD293): 6.13 ± 0.39 µM | melting point: 141 to 143 °C

C=C1CC[C@@H]2[C@](C)(CO)[C@H](O)CC[C@@]2(C)[C@@H]1C/C=C1/C(=O)OC[C@H]1O [compound 1, Andrographolide]
EC50 ([1]; Homo sapiens, AD293): > 10 µM | EC50 ([2]; Homo sapiens, AD293): > 10 µM | CC50 at 24 h [9]: > 10 µM | EC50 ([4]; Homo sapiens, AD293): > 10 µM

(14α)-(Quinolyl-8′-oxy)-3,19-acetonylidene andrographolide [5a17]
inhibition rate (%) EC (E. coli): (44) % | IC50 (E. faecalis): 10.4 ± 2.5 µM | EC50 [1]: > 10 µM | EC50 [2]: > 10 µM | CC50 (AD-293 cells [3]): > 10 µM | inhibition rate (%) SA (S. aureus): (35) % | EC50 [4]: 4.71 ± 0.17 µM
